One assay has as its target T1, FLT3-D835Y (Homo sapiens, UniProt P36888, D835Y).
T1 construct: purchased Invitrogen PV3967
T1 sequence (P36888 27-993 D835Y): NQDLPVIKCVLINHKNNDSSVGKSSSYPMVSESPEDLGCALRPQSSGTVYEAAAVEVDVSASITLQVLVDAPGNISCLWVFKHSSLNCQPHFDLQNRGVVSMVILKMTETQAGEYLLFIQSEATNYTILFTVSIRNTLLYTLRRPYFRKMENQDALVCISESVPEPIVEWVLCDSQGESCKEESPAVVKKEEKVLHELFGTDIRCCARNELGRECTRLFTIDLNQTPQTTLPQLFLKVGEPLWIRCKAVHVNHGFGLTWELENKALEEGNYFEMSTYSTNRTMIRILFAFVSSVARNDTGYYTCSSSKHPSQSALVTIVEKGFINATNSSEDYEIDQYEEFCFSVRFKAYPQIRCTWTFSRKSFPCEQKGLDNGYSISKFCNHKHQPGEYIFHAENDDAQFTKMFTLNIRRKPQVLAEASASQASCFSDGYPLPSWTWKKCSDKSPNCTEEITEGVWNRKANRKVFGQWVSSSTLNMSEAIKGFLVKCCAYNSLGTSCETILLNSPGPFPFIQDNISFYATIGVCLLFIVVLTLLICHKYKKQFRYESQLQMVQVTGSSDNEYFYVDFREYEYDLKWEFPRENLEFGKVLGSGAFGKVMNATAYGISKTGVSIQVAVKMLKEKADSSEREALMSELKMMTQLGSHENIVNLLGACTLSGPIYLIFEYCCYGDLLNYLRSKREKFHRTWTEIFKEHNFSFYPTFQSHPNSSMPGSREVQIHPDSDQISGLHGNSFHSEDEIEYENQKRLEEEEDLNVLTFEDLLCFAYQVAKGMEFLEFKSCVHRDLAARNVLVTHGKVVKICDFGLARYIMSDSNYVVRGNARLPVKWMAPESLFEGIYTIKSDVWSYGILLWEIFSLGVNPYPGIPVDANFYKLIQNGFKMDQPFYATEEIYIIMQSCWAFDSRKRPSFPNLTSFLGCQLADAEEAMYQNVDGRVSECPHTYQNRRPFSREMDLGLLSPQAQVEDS
Nature of the assay: AlphaScreen kinase assay with recombinant enzyme, FLT3-D835Y. The format is biochemical. As to conditions: 8pt, GMean. The gist of the method: (§1)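 Compounds in DMSO added to enzyme plus biotin-poly(Glu4-Tyr) (30 nM) in assay buffer, then ATP added. Streptavidin donor beads added (20 min, RT), then PY20 acceptor beads (60 min, RT), both at 10 μg/mL final in stop/detection buffer. IC50 conditions: 10 μM FLT3-D835Y/ITD, 100 μM c-KIT.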
(Alpha assays give light when donor and acceptor beads are brought close together.)

The next assay addresses T2, FLT3-ITD (Homo sapiens, UniProt P36888).
T2 sequence (P36888 1-993): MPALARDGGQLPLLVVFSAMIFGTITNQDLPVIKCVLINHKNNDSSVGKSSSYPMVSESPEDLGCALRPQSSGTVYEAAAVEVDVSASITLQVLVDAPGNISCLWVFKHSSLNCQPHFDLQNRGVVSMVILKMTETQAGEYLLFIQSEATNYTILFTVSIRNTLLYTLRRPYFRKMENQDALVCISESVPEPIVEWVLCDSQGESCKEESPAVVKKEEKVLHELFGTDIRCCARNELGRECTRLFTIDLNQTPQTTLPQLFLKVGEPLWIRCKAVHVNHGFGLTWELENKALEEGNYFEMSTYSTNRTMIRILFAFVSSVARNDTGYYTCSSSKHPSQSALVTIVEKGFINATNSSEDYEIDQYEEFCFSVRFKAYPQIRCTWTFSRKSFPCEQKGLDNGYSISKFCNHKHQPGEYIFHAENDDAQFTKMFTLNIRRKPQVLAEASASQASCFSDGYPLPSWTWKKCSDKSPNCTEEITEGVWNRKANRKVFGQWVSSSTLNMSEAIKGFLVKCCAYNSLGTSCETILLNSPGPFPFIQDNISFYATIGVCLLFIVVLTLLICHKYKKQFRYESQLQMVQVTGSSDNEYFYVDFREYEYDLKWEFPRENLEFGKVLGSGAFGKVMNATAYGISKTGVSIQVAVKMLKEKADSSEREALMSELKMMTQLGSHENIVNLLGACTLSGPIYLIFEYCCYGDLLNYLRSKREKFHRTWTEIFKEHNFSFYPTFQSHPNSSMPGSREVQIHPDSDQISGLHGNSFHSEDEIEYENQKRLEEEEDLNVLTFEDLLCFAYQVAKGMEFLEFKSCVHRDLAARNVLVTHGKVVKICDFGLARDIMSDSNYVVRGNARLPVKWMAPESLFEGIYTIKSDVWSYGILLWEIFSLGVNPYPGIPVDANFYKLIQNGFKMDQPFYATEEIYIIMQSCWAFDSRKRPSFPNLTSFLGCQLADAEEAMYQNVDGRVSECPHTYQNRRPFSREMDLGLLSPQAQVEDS
Nature of the assay: AlphaScreen kinase assay with recombinant enzyme, FLT3-ITD. The note with it: 8pt; read-out: FLT3_ITD 8pt: IC50. In kind it is biochemical. The gist of the method:
as §1

For orientation: IC50 means the concentration at which inhibition is half-maximal. As for `CCNC(=O)NC1CCN(C(=O)c2cccc(-c3cnc4[nH]c(-c5ccccc5)cc4c3)n2)CC1` [Compound P-0031, 1-ethyl-3-[1-[6-(2-phenyl-1H-pyrrolo[2,3-b]pyridin-5-yl)pyridine-2-carbonyl]-4-piperidyl]urea], the IC50 on FLT3-D835Y and on FLT3-ITD was 0.0001 to 10 µM each time.
On to `c1ccc(-c2cc3cc(-c4ccc5[nH]nc(NC6CCNC6)c5c4)cnc3[nH]2)cc1` (centres unmarked) [Compound P-0059, 5-(2-phenyl-1H-pyrrolo[2,3-b]pyridin-5-yl)-N-pyrrolidin-3-yl-1H-indazol-3-amine], for which the half-inhibitory concentration (IC50) on FLT3-D835Y and at FLT3-ITD was 0.0001 to 10 µM throughout.
For the molecule `N[C@@H]1CN(C(=O)c2cccc(-c3cnc4[nH]c(-c5ccccc5)cc4c3)n2)CC12CC2` [Compound P-0083, [(7S)-7-amino-5-azaspiro[2.4]heptan-5-yl]-[6-(2-phenyl-1H-pyrrolo[2,3-b]pyridin-5-yl)-2-pyridyl]methanone], the IC50 on FLT3-D835Y and on FLT3-ITD was 0.0001 to 10 µM throughout.
`NC1CCN(c2cccc3ccc(-c4cnc5[nH]c(-c6ccccc6)cc5c4)nc23)CC1` [Compound P-0034, 1-[2-(2-phenyl-1H-pyrrolo[2,3-b]pyridin-5-yl)-8-quinolyl]piperidin-4-amine]: the IC50 at FLT3-D835Y and at FLT3-ITD was 0.0001 to 10 µM in each case.
`O=C(NC1CCNC1)c1cccc(-c2cnc3[nH]c(-c4ccccc4)cc3c2)n1` (centres unmarked) [Compound P-0045, 6-(2-phenyl-1H-pyrrolo[2,3-b]pyridin-5-yl)-N-pyrrolidin-3-yl-pyridine-2-carboxamide]: the half-maximal inhibitory concentration (IC50) at FLT3-D835Y and at FLT3-ITD was 0.0001 to 10 µM each time.
Take `N[C@H]1CCN(C(=O)c2csc(-c3cnc4[nH]c(-c5ccccc5)cc4c3)n2)C1` [Compound P-0048, [(3S)-3-aminopyrrolidin-1-yl]-[2-(2-phenyl-1H-pyrrolo[2,3-b]pyridin-5-yl)thiazol-4-yl]methanone]: the figures for the IC50 on FLT3-D835Y and on FLT3-ITD were 10 to 50 µM and 0.0001 to 10 µM, respectively.
Take `CON(C)C(=O)c1cccc(-c2cnc3[nH]c(-c4ccccc4)cc3c2)c1` [Compound P-0002, N-methoxy-N-methyl-3-(2-phenyl-1H-pyrrolo[2,3-b]pyridin-5-yl)benzamide]: the IC50 at FLT3-D835Y and at FLT3-ITD was 0.0001 to 10 µM in each case.
Regarding `O=C(c1cccc(-c2cnc3[nH]c(-c4ccccc4)cc3c2)n1)N1CCCC(O)C1` (centres unmarked) [Compound P-0069, (3-hydroxy-1-piperidyl)-[6-(2-phenyl-1H-pyrrolo[2,3-b]pyridin-5-yl)-2-pyridyl]methanone], the IC50 at FLT3-D835Y and at FLT3-ITD was 0.0001 to 10 µM in each case.
Turning to `NC1CCN(C(=O)c2cc(-c3cnc4[nH]c(-c5ccccc5)cc4c3)ccn2)CC1` [Compound P-0038, (4-amino-1-piperidyl)-[4-(2-phenyl-1H-pyrrolo[2,3-b]pyridin-5-yl)-2-pyridyl]methanone], the IC50 on FLT3-D835Y and on FLT3-ITD was 0.0001 to 10 µM in each case.
`CNC1CCN(C(=O)c2n[nH]c3ccc(-c4cnc5[nH]c(-c6ccccc6)cc5c4)cc23)CC1` [Compound P-0044, [4-(methylamino)-1-piperidyl]-[5-(2-phenyl-1H-pyrrolo[2,3-b]pyridin-5-yl)-1H-indazol-3-yl]methanone]: the IC50 at FLT3-D835Y and on FLT3-ITD was 0.0001 to 10 µM in each case.
As for `Cc1ccc(-c2cnc3[nH]c(-c4ccccc4)cc3c2)cc1C(=O)N1CCC(N)CC1` [Compound P-0035, (4-amino-1-piperidyl)-[2-methyl-5-(2-phenyl-1H-pyrrolo[2,3-b]pyridin-5-yl)phenyl]methanone], the concentration for half-maximal inhibition (IC50) at FLT3-D835Y and on FLT3-ITD was 0.0001 to 10 µM each time.
On to `NC1CCC(C(=O)N2Cc3c(cccc3-c3cnc4[nH]c(-c5ccccc5)cc4c3)C2=O)C1` (centres unmarked) [Compound P-0047, 2-(3-aminocyclopentanecarbonyl)-4-(2-phenyl-1H-pyrrolo[2,3-b]pyridin-5-yl)isoindolin-1-one], for which the IC50 on FLT3-D835Y and on FLT3-ITD was 0.0001 to 10 µM each time.
Consider `CC(=O)NC1CCN(C(=O)c2cccc(-c3cnc4[nH]c(-c5ccc(F)cc5)cc4c3)c2)CC1` [Compound P-0001, N-[1-[3-[2-(4-fluorophenyl)-1H-pyrrolo[2,3-b]pyridin-5-yl]benzoyl]-4-piperidyl]acetamide], for which the IC50 on FLT3-D835Y and on FLT3-ITD was 10 to 50 µM in each case.
Consider `O=C(c1cccc(-c2cnc3[nH]c(-c4ccccc4)cc3c2)n1)C1CCNCC1` [Compound P-0043, [6-(2-phenyl-1H-pyrrolo[2,3-b]pyridin-5-yl)-2-pyridyl]-(4-piperidyl)methanone], for which the IC50 at FLT3-D835Y and at FLT3-ITD was 0.0001 to 10 µM in each case.
Take `CNC1CCCN(C(=O)c2cccc(-c3cnc4[nH]c(-c5ccccc5)cc4c3)n2)C1` (centres unmarked) [Compound P-0080, [3-(methylamino)-1-piperidyl]-[6-(2-phenyl-1H-pyrrolo[2,3-b]pyridin-5-yl)-2-pyridyl]methanone]: the half-inhibitory concentration (IC50) on FLT3-D835Y and on FLT3-ITD was 0.0001 to 10 µM throughout.
Regarding `O=C(c1cccc(-c2cnc3[nH]c(-c4ccccc4)cc3c2)n1)N1CCC(F)(F)CC1` [Compound P-0089, (4,4-difluoro-1-piperidyl)-[6-(2-phenyl-1H-pyrrolo[2,3-b]pyridin-5-yl)-2-pyridyl]methanone], the values for the IC50 on FLT3-D835Y and at FLT3-ITD were 50 to 100 µM and 0.0001 to 10 µM, respectively.

The record behind these values is patent publication US9938273B2 (Plexxikon Inc., priority 2015, dated 2018).
